Experimental data from US8759051B2, “Control of contaminant microorganisms in fermentation processes with peroxygen-releasing compounds” (E I du Pont de Nemours and Company, priority 2010, dated 2014).

Test system: lactic acid bacteria (LAB)
Experiment: Susceptibility of lactic acid bacteria cocktail to sodium percarbonate in diluted molasses (Example 1)
Format: cell-based
Conditions: for LAB level after treatment: approx. 2 hours, 32° C., molasses
Description: In this example, the susceptibility of yeast and lactic acid bacteria to sodium percarbonate was determined in molasses. Molasses was prepared by diluting molasses (B&G Foods, Inc., Roseland, N.J.) 1 part to 3.1 parts water to mimic conditions used for ethanol production based on a molasses feedstock (common in Latin America and Asia). The diluted molasses was autoclaved at 121° C. for 15 minutes to sterilize prior to use in the experiment. Cultures of lactic acid bacteria (LAB) (Lactobacillus plantarum, Lactobacillus brevis, Lactobacillus fermentum, and Lactobacillus paracasei) were prepared by inoculating MRS broth (available from Difco Laboratories Inc., Sparks, Md.) and incubating overnight at 32° C. with agitation. The bacteria were selected because they had previously been isolated from contaminated ethanol fermentation processes. Cultures of each organism were combined to create a bacterial cocktail and diluted in molasses to give 1.0×10^7, 1.0×10^6, and 1.0×10^5 bacteria/ml, or commonly expressed as colony forming units per milliliter or CFU/ml). Sodium percarbonate (Alfa Aesar, Ward Hill, Mass.) was prepared as a 2% solution immediately prior to use. Percarbonate was added to tubes containing 25 ml of inoculated molasses to give concentrations of 0, 100, 250, 500 and 1000 ppm. Tubes were incubated at 32° C. with agitation. After approximately 2 hours, bacterial levels present in each tube were enumerated by plating decimal dilutions of molasses onto the surface of MRS agar plates (Difco Laboratories Inc., Sparks, Md.). Plates were incubated overnight at 32° C.

O=C([O-])[O-].O=C([O-])[O-].OO.OO.OO.[Na+].[Na+].[Na+].[Na+] [Sodium percarbonate, sodium percarbonate]
log reductions of LAB (1000 ppm percarbonate): > 6 log
LAB level (below detectable limit of the assay) (1000 ppm percarbonate, all of the tested levels of LAB): < 10 CFU/ml
reduction in the level of bacteria (initial LAB 1.0×10^6 or 1.0×10^7 CFU/ml, 500 ppm percarbonate): 2 log
LAB level after treatment (inoculum 1.0 × 10^5 CFU/ml, 100 ppm percarbonate): 8.90 × 10^4 CFU/ml
LAB level after treatment (inoculum 1.0 × 10^5 CFU/ml, 250 ppm percarbonate): 1.80 × 10^3 CFU/ml
LAB level after treatment (inoculum 1.0 × 10^5 CFU/ml, 500 ppm percarbonate): 1.70 × 10^2 CFU/ml
LAB level after treatment (inoculum 1.0 × 10^5 CFU/ml, 1000 ppm percarbonate): <10 CFU/ml
LAB level after treatment (inoculum 1.0 × 10^6 CFU/ml, 100 ppm percarbonate): 8.50 × 10^5 CFU/ml
LAB level after treatment (inoculum 1.0 × 10^6 CFU/ml, 250 ppm percarbonate): 1.55 × 10^5 CFU/ml
LAB level after treatment (inoculum 1.0 × 10^6 CFU/ml, 500 ppm percarbonate): 1.17 × 10^4 CFU/ml
LAB level after treatment (inoculum 1.0 × 10^6 CFU/ml, 1000 ppm percarbonate): <10 CFU/ml
LAB level after treatment (inoculum 1.0 × 10^7 CFU/ml, 100 ppm percarbonate): 6.90 × 10^6 CFU/ml
LAB level after treatment (inoculum 1.0 × 10^7 CFU/ml, 250 ppm percarbonate): 1.68 × 10^6 CFU/ml
LAB level after treatment (inoculum 1.0 × 10^7 CFU/ml, 500 ppm percarbonate): 1.20 × 10^5 CFU/ml
LAB level after treatment (inoculum 1.0 × 10^7 CFU/ml, 1000 ppm percarbonate): <10 CFU/ml
reduction in the level of bacteria (starting LAB 1.0×10^5 CFU/ml, 500 ppm percarbonate, two hours): ~3 log
